Converted amounts (≈) assume the structure as drawn. Where a name gives a salt, the structure may show the parent alone. Read-outs that look alike come from different tables or passages of the source.
How the values were obtained:
[1] = Water solubility (equilibrium solubility at ambient temperature); type: physicochemical
Method: The water solubility of Mesylate Salt Form 1 was measured at ambient temperature. Table 6 is a summary of the equilibrium solubility.

[2] = Gravimetric vapor sorption (GVS), hygroscopicity; type: physicochemical
Method: Gravimetric vapor sorption (GVS) data are collected using a SGA-100 Water Vapor Sorption Analyzer from VTI Corporation. Sample sizes are typically 10 mg. A moisture adsorption/desorption isotherm is recorded by subjecting samples to a series of relative humidity (RH) steps.

solubility ([1]; pH 2.52, thermodynamic from solid, water, ambient temperature, equilibrium solubility, read-out: Solubility) [µg/mL] | pH ([1]; pH printed beside the equilibrium water solubility) | solubility ([1]; thermodynamic from solid, in water, crystalline Form 1, read-out: solubility) [µg/mL] | uptake (vapor sorption) ([2]; at 70% relative humidity (RH)) [%] | uptake (vapor sorption) ([2]; at 90% RH) [%] | solubility ([1]; in water, crystalline free base, read-out: solubility) [µg/mL] | solubility ([1]; water, free base, read-out: intrinsic solubility) [µg/mL] | SMILES
> 360000 | 2.52 | > 360000 | 1.5 | 3.4 |  |  | C[C@@H]1CN(C(=O)CN2CC(C)(C)OC[C@H]2C(=O)Nc2cc(Cl)cc3c2[nH]c2cnccc23)C[C@H](C)O1 [Mesylate Form 1, (S)—N-(6-chloro-9H-pyrido[3,4-b]indol-8-yl)-4-(2-((2S,6R)-2,6-dimethylmorpholino)-2-oxoethyl)-6,6-dimethylmorpholine-3-carboxamide Mesylate Form 1]
 |  |  |  |  | ~10 (≈ 19.5 µM) | ~10 (≈ 19.5 µM) | C[C@@H]1CN(C(=O)CN2CC(C)(C)OC[C@H]2C(=O)Nc2cc(Cl)cc3c2[nH]c2cnccc23)C[C@H](C)O1 [free base, (S)—N-(6-chloro-9H-pyrido[3,4-b]indol-8-yl)-4-(2-((2S,6R)-2,6-dimethylmorpholino)-2-oxoethyl)-6,6-dimethylmorpholine-3-carboxamide]

— patent publication US20090137579A1, “Mesylate salt of an IKK inhibitor” (Millennium Pharmaceuticals, Inc., priority 2007, published 2009)
